# Reference: patent publication US8772500B2, “TRPV3 modulators” (AbbVie Inc., priority 2011, dated 2014)
# Key:
# [1] = In vitro rat microsomal stability assay; format: in vitro ADME, rat (Sprague-Dawley); conditions: Sprague-Dawley, rat, 0.5 h, 0.5 μM, pH 7.4
# Experimental: (§1) Test compounds were evaluated for metabolic stability in an in vitro rat microsomal stability assay using rat (Sprague-Dawley, from BD Biosciences) liver microsomes and/or an in vitro human microsomal stability assay using human (Xenotech) liver microsomes. […] Incubations were carried out at 37° C. with a final incubation volume of 135 μL. […] A 1.5 μL aliquot of reduced nicotine adenine disphosphonucleotide (NADPH) (Chem-Impex Int'L Inc., Lot 12532024) was also added to the time-zero plates.
# [2] = In vitro human microsomal stability assay; format: in vitro ADME; conditions: human, 0.5 h, 0.5 μM, pH 7.4
# Experimental: as §1
Compound,RAT MICROSOMAL STABILITY (% REMAINING AFTER 30 MINUTES) [1] [%],HUMAN MICROSOMAL STABILITY (% REMAINING AFTER 30 MINUTES) [2] [%]
"O=C1CC(c2ccc(C(F)(F)F)cc2)([C@H](O)c2ccccn2)C1 [Example 164, 3-[(S)-hydroxy(pyridin-2-yl)methyl]-3-[4-(trifluoromethyl)phenyl]-cyclobutanone]",81,71
"O=C1CC(c2ccc(C(F)(F)F)cc2)([C@@H](O)c2ccccn2)C1 [Example 165, 3-[(R)-hydroxy(pyridin-2-yl)methyl]-3-[4-(trifluoromethyl)phenyl]cyclobutanone]",77,83
"OC(C1CCc2cccnc21)C1(c2ccc(Cl)c(Cl)c2)CCC1 (stereo not drawn) [Example 167, (anti)-[1-(3,4-dichlorophenyl)cyclobutyl][6,7-dihydro-5H-cyclopenta[b]-pyridin-7-yl]methanol]",<0.01,9.5
"OC(C1CCCc2cccnc21)C1(c2ccc(F)c(F)c2)CCC1 (stereo not drawn) [Example 170, (syn)-[1-(3,4-difluorophenyl)cyclobutyl][5,6,7,8-tetrahydroquinolin-8-yl]-methanol]",<0.01,<0.01
"OC(C1CCc2cccnc21)C1(c2ccc(F)c(F)c2)CCC1 (stereo not drawn) [Example 171, (anti)-[1-(3,4-difluorophenyl)cyclobutyl][6,7-dihydro-5H-cyclopenta[b]-pyridin-7-yl]methanol]",<0.01,2.7
"OC(C1CCc2cccnc21)C1(c2ccc(F)c(F)c2)CCC1 (stereo not drawn) [Example 172, (syn)-[1-(3,4-difluorophenyl)cyclobutyl][6,7-dihydro-5H-cyclopenta[b]-pyridin-7-yl]methanol]",<0.01,2.4
"OC(C1CCc2cccnc21)C1(c2ccc(C(F)(F)F)cc2)CCC1 (stereo not drawn) [Example 173, (anti)-6,7-dihydro-5H-cyclopenta[b]pyridin-7-yl{1-[4-(trifluoromethyl)-phenyl]cyclobutyl}methanol]",<0.01,45
"OC(C1CCc2cccnc21)C1(c2ccc(C(F)(F)F)cc2)CCC1 (stereo not drawn) [Example 174, (syn)-6,7-dihydro-5H-cyclopenta[b]pyridin-7-yl{1-[4-(trifluoromethyl)-phenyl]cyclobutyl}methanol]",<0.01,26
"OC(C1CCc2cccnc21)C1(c2ccc(OC(F)(F)F)cc2)CCC1 (stereo not drawn) [Example 175, (anti)-6,7-dihydro-5H-cyclopenta[b]pyridin-7-yl{1-[4-(trifluoromethoxy)-phenyl]cyclobutyl}methanol]",<0.01,29
"OC(C1CCc2cccnc21)C1(c2ccc(OC(F)(F)F)cc2)CCC1 (stereo not drawn) [Example 176, (syn)-6,7-dihydro-5H-cyclopenta[b]pyridin-7-yl{1-[4-(trifluoromethoxy)-phenyl]cyclobutyl}methanol]",<0.01,20
"OC(C1CCc2cccnc21)C1(c2cccc(C(F)(F)F)c2)CCC1 (stereo not drawn) [Example 185, (anti)-6,7-dihydro-5H-cyclopenta[b]pyridin-7-yl{1-[3-(trifluoromethyl)-phenyl]cyclobutyl}methanol]",<0.01,0.39
"OC(C1CCCc2cccnc21)C1(c2cccc(OC(F)(F)F)c2)CCC1 (stereo not drawn) [Example 187, (anti)-5,6,7,8-tetrahydroquinolin-8-yl{1-[3-(trifluoromethoxy)phenyl]-cyclobutyl}methanol]",<0.01,<0.01
"OC(C1CCCc2cccnc21)C1(c2cccc(OC(F)(F)F)c2)CCC1 (stereo not drawn) [Example 188, (syn)-5,6,7,8-tetrahydroquinolin-8-yl{1-[3-(trifluoromethoxy)phenyl]-cyclobutyl}methanol]",<0.01,0.16
"OC(C1CCc2cccnc21)C1(c2cccc(OC(F)(F)F)c2)CCC1 (stereo not drawn) [Example 189, (anti)-6,7-dihydro-5H-cyclopenta[b]pyridin-7-yl{1-[3-(trifluoromethoxy)-phenyl]cyclobutyl}methanol]",<0.01,0.65
"OC(C1CCc2cccnc21)C1(c2cccc(OC(F)(F)F)c2)CCC1 (stereo not drawn) [Example 190, (syn)-6,7-dihydro-5H-cyclopenta[b]pyridin-7-yl{1-[3-(trifluoromethoxy)-phenyl]cyclobutyl}methanol]",<0.01,3.7
"OC(C1CCCc2cccnc21)C1(c2ccccc2OC(F)(F)F)CCC1 (stereo not drawn) [Example 191, (anti)-5,6,7,8-tetrahydroquinolin-8-yl{1-[2-(trifluoromethoxy)phenyl]-cyclobutyl}methanol]",<0.01,<0.01
"OC(C1CCCc2cccnc21)C1(c2ccccc2OC(F)(F)F)CCC1 (stereo not drawn) [Example 192, (syn)-5,6,7,8-tetrahydroquinolin-8-yl{1-[2-(trifluoromethoxy)phenyl]-cyclobutyl}methanol]",<0.01,<0.01
"OC(C1CCc2cccnc21)C1(c2ccccc2OC(F)(F)F)CCC1 (stereo not drawn) [Example 193, (anti)-6,7-dihydro-5H-cyclopenta[b]pyridin-7-yl{1-[2-(trifluoromethoxy)-phenyl]cyclobutyl}methanol]",<0.01,0.02
"OC(C1CCc2cccnc21)C1(c2ccccc2OC(F)(F)F)CCC1 (stereo not drawn) [Example 194, (syn)-6,7-dihydro-5H-cyclopenta[b]pyridin-7-yl{1-[2-(trifluoromethoxy)-phenyl]cyclobutyl}methanol]",<0.01,0.08
"OC(C1CCCc2cccnc21)C1(c2ccccc2C(F)(F)F)CCC1 (stereo not drawn) [Example 195, (anti)-5,6,7,8-tetrahydroquinolin-8-yl{1-[2-(trifluoromethyl)phenyl]-cyclobutyl}methanol]",<0.01,<0.01
"OC(C1CCCc2cccnc21)C1(c2ccccc2C(F)(F)F)CCC1 (stereo not drawn) [Example 196, (syn)-5,6,7,8-tetrahydroquinolin-8-yl{1-[2-(trifluoromethyl)phenyl]-cyclobutyl}methanol]",<0.01,<0.01
"OC(C1CCc2cccnc21)C1(c2ccccc2C(F)(F)F)CCC1 (stereo not drawn) [Example 197, (anti)-6,7-dihydro-5H-cyclopenta[b]pyridin-7-yl{1-[2-(trifluoromethyl)-phenyl]cyclobutyl}methanol]",<0.01,0.26
"OC(C1CCc2cccnc21)C1(c2ccccc2C(F)(F)F)CCC1 (stereo not drawn) [Example 198, (syn)-6,7-dihydro-5H-cyclopenta[b]pyridin-7-yl{1-[2-(trifluoromethyl)-phenyl]cyclobutyl}methanol]",<0.01,0.05
"O/N=C(\c1ccccn1)C1(c2ccc(Cl)c(Cl)c2)CCC1 [Example 230, (Z)-[1-(3,4-dichlorophenyl)cyclobutyl](pyridin-2-yl)methanone oxime]",30,33
"OC(c1ccccn1)C1(C2CCOCC2)CCC1 (centres unmarked) [Example 239, pyridin-2-yl[1-(tetrahydro-2H-pyran-4-yl)cyclobutyl]methanol]",0.072,57
"O=C1CC(c2cccc(C(F)(F)F)c2)([C@H](O)c2ccccn2)C1 [Example 241, 3-[(S)-hydroxy(pyridin-2-yl)methyl]-3-[3-(trifluoromethyl)phenyl]-cyclobutanone]",59,66
"O=C1CC(c2cccc(C(F)(F)F)c2)([C@@H](O)c2ccccn2)C1 [Example 243, 3-[(R)-hydroxy(pyridin-2-yl)methyl]-3-[3-(trifluoromethyl)phenyl]-cyclobutanone]",55,64
"OC(c1ccccn1)C1(C2(O)CCOC2)CCC1 (centres unmarked) [Example 246, 3-{1-[hydroxy(pyridin-2-yl)methyl]cyclobutyl}tetrahydrofuran-3-ol]",59,71
